# From patent US8715628B1, “Cosmetic compositions and methods for inhibiting or reducing trypsin activity” (The Procter & Gamble Company, priority 2011, dated 2014)
# “And” between values parts separate entries of the source, which are not always exact repeats. Equal values may be shown once.
# Target: T1, Trypsin from a bovine pancreas (Bos taurus, UniProt P00760)
# T1 construct: Trypsin from a bovine pancreas; purchased Sigma-Aldrich T8802; host or cells: bovine pancreas (tissue-derived)
# T1 sequence (P00760 24-246): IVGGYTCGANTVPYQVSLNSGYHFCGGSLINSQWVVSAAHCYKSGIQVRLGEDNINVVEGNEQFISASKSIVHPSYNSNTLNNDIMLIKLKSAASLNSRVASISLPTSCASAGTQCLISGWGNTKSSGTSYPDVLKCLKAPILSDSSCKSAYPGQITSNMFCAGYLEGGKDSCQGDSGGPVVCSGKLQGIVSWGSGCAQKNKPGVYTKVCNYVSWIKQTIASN
# Experiment: Trypsin assay (fluorogenic substrate Z-Phe-Arg-7-amido-4-methylcoumarin, kinetic slope vs vehicle control)
# Format: biochemical
# Settings: single-well values, n=8 wells
# Description: Trypsin from a bovine pancreas (available from Sigma-Aldrich, USA, Catalog #T8802) is diluted in phosphate buffered saline (PBS) to make a stock of about 0.001% trypsin. In a 96 well white plate with clear bottom (e.g., Corning Costar #3904 available from _VWR International, LLC, Pennsylvania, USA), about 90 uL of 0.001% trypsin stock is mixed with about 10 uL of a test compound (e.g., N-undecylenoyl-L-phenylalanine) or vehicle control, such as dimethyl sulfoxide (DMSO) or water. Typically, there are 8 control wells per plate. The assay is initiated by the addition of 100 uL of the substrate, Z-Phe-Arg-7-amido-4-methylcoumarin (e.g., Calbiochem Catalog #03-32-1501-10 mM in PBS available from Life Technologies, California, USA) and the well plate is monitored in a fluorescent plate reader (e.g., a Gemini plate reader) with an excitation wavelength of 360 nm and an emission wavelength of 460 nm. The reaction progress is measured in a kinetic mode for 5 minutes. SoftMaxPro Data Analysis Software (available from Molecular Devices, Inc.) is used to fit a line to the data points for each well, and the slopes of the lines are then calculated. The slopes of each test compound well are compared to the average of the slopes of the vehicle control wells of a plate to determine the percentage of trypsin activity using equation (1) below. As the trypsin hydrolyzes the substrate, the fluorescence of the 7-amido-coumarin group increases, causing a growth in the signal which reflects the level of trypsin activity. An inhibitor attenuates the fluorescence growth resulting in a smaller slope. Percent(%)trypsin activity=[slope of test well]/[average slope of vehicle control wells] (1)
# Using generally the method outlined above, the percentage of trypsin activity was measured for 1:900 dilution of 1% N-undecylenoyl-L-phenylalanine, 3% myo-inositol, 5% niacinamide, and 5% hexyldecanol using a sample size of n=8 wells for each compound. […]
compound,measurement,setting,value
"CCCCCCCCC(CO)CCCCCC (stereo not shown) [Hexyldecanol, 2-Hexyldecan-1-ol]",% Activity (percentage of trypsin activity),1:900 dilution of 5% hexyldecanol,87.1% and 90.7% and 85.7% and 100.0% and 112.4% and 112.0% and 88.7% and 95.4%
"O[C@H]1[C@H](O)[C@@H](O)[C@H](O)[C@@H](O)[C@H]1O [Myo-Inositol, myo-inositol]",% Activity (percentage of trypsin activity),1:900 dilution of 3% myo-inositol,93.8% and 112.4% and 101.4% and 108.9% and 108.0% and 121.4% and 95.6% and 109.2%
C=CCCCCCCCCC(=O)N[C@@H](Cc1ccccc1)C(=O)O [N-undecylenoyl-L-phenylalanine],% Activity (percentage of trypsin activity),"1:900 dilution of 1% N-undecylenoyl-L-phenylalanine, >100% up-regulation, <100% inhibition",91.4% and 104.9% and 97.2% and 100.5% and 121.8% and 116.3% and 79.9% and 99.8%
"NC(=O)c1cccnc1 [Niacinamide, niacinamide]",% Activity (percentage of trypsin activity),1:900 dilution of 5% niacinamide,106.0% and 91.8% and 91.3% and 107.7% and 111.1% and 109.1% and 93.9% and 88.7%
